± gives the expanded uncertainty stated by the source.
Experiments:
[1] = Solid-liquid equilibrium temperature; settings: 101.33 kPa; Crystal; DTA
[2] = Molar enthalpy of transition or fusion; settings: Crystal; DSC
[3] = molar heat capacity at constant pressure; settings: 462.02 K; 101.33 kPa; Crystal; Large sample (1 g) DSC

CCOc1ccc2c(C)cc(=O)oc2c1 [7-ethoxy-4-methyl-2H-chromen-2-one]
Solid-liquid equilibrium temperature [1]: 387.52 ± 0.2 K
Molar enthalpy of transition or fusion [2]: 6.17 ± 0.174 kcal/mol

Cc1cc(=O)oc2cc(O)ccc12 [7-hydroxy-4-methyl-2H-chromen-2-one]
molar heat capacity at constant pressure [3]: 8.971 ± 0.18 J/K/mol
Solid-liquid equilibrium temperature [1]: 462.02 ± 0.24 K
Molar enthalpy of transition or fusion [2]: 7.51 ± 0.165 kcal/mol

COc1ccc2oc(=O)cc(C)c2c1 [6-methoxy-4-methylcoumarin]
Solid-liquid equilibrium temperature [1]: 436.13 ± 0.22 K
Molar enthalpy of transition or fusion [2]: 7.96 ± 0.172 kcal/mol
